Strand notation (5' to 3'): a small letter for the sugar, then the base; units joined by * are phosphorothioate-linked, units joined directly phosphodiester-linked; [ ] holds rarer units or linkages, { } end groups; capitals alone tell only the bases. e = 2'-O-(2-methoxyethyl) (MOE); k = constrained ethyl (cEt); [5mC] = 5-methylcytosine; d = 2'-deoxy (DNA); m = 2'-O-methyl
Test system: Yap1 mRNA
Assay: Antisense inhibition of human Yap1 in SNU-449 cells by modified oligonucleotides, single dose (Example 5, RTS36584)
Format: cell-based
Details: Table 39; SNU-449 cells, 10,000 cells per well, free uptake, 2,000 nM oligonucleotide, approx. 48 hours; RTS36584; normalized to RIBOGREEN; Yap1 mRNA relative to untreated control
Protocol: Modified oligonucleotides with additional chemistry modifications were designed to target a Yap1 nucleic acid and were tested for their effect on Yap1 mRNA level in SNU-449 cells. The modified oligonucleotides were tested in a series of experiments that had similar culture conditions. Cultured SNU-449 cells at a density of 10,000 cells per well were treated using free uptake with 2,000 nM of modified oligonucleotide. After a treatment period of approximately 48 hours, RNA was isolated from the cells and Yap1 mRNA levels were measured by quantitative real-time RTPCR. Human primer probe set RTS36584 was used to measure mRNA levels. Yap1 mRNA levels were normalized to total RNA content, as measured by RIBOGREEN®. Results are presented in the tables below as percent control of the amount of Yap1 mRNA relative to untreated control cells (% UTC). The modified oligonucleotides with percent control values marked with an asterisk (*) target the amplicon region of the primer probe set. Additional assays may be used to measure the potency and efficacy of the modified oligonucleotides targeting the amplicon region.
Several different chemistry modifications were tested, which are specified in the Chemistry Notation column of the tables below, wherein the notation “d” refers to a 2′-deoxyribose sugar, the notation “s” refers to a phosphorothioate (P═S) internucleoside linkage, the notation “k” refers to a cEt modified sugar, the notation “y” refers to a 2′-O-methyl ribose sugar, the notation “e” refers to a MOE modified sugar, and the notation “^mC” refers to a 5-methylcytosine.
“Start site” indicates the 5′-most nucleoside to which the gapmer is targeted in the human gene sequence. “Stop site” indicates the 3′-most nucleoside to which the gapmer is targeted human gene sequence. […] Activity of the modified oligonucleotide may be defined in a different experiment.

Substance	YAP1 (% UTC)
1198435 (kA*dT*dG*dT*dA*dA*dT*dA*dT*dT*dG*k[5mC]*eA*kA*eT*k[5mC]; antisense) [Compound 1198435]	57
1198413 (kT*dT*dT*dA*dG*dG*dA*dT*dG*d[5mC]*dA*kT*eG*kG*eT*kT) [Compound 1198413]	29
1198405 (k[5mC]*dT*dT*dT*dG*dG*dA*dA*dG*dA*dT*k[5mC]*eT*kG*eA*kA; antisense) [Compound 1198405]	36
1198395 (k[5mC]*dT*dT*dT*dT*dA*d[5mC]*dA*dT*dT*dA*kG*eG*kA*eA*k[5mC]; antisense) [Compound 1198395]	35
1198451 (k[5mC]*dT*dA*dA*dG*dT*dA*dA*dG*dG*dT*kT*eT*k[5mC]*e[5mC]*k[5mC]; antisense) [Compound 1198451]	48
1198396 (kA*d[5mC]*dT*dT*dT*dT*dA*d[5mC]*dA*dT*dT*kA*eG*kG*eA*kA; antisense) [Compound 1198396]	25

Same assay, conditions: Table 40 (separate experiment); SNU-449 cells, 10,000 cells per well, free uptake, 2,000 nM oligonucleotide, approx. 48 hours; RTS36584; normalized to RIBOGREEN; Yap1 mRNA relative to untreated control

Substance	YAP1 (% UTC)
1198446 (kA*dA*d[5mC]*dT*dT*dT*dA*dA*dA*dG*dT*kG*eT*kA*eT*kG; antisense) [Compound 1198446]	83
1198756 (kG*eT*kG*d[5mC]*dT*dT*dT*dG*dG*dA*dA*dG*eA*eT*k[5mC]*kT; antisense) [Compound 1198756]	50
1198799 (antisense k[5mC]*eT*kA*dA*dG*dT*dA*dA*dG*dG*dT*dT*eT*e[5mC]*k[5mC]*k[5mC]) [Compound 1198799]	18
1198745 (k[5mC]*eA*k[5mC]*dT*dT*dT*dT*dA*d[5mC]*dA*dT*dT*eA*eG*kG*kA; antisense) [Compound 1198745]	57

Same assay, conditions: Table 41; SNU-449 cells, 10,000 cells per well, free uptake, 2,000 nM modified oligonucleotide, approximately 48 hours; RTS36584; normalized to RIBOGREEN; Yap1 mRNA relative to untreated control cells

Substance	YAP1 (% UTC)
1198654 (kA*k[5mC]*dT*dT*dT*dT*dA*d[5mC]*dA*dT*dT*dA*kG*eG*kA*eA; antisense) [Compound 1198654]	91
1198645 (kT*k[5mC]*dT*dA*dT*dA*dT*dT*dA*dG*dA*dG*kT*eA*kT*eG; antisense) [Compound 1198645]	73
1198770 (k[5mC]*eT*kT*dA*dT*dA*dT*dG*dG*dT*dT*dT*eT*eG*kT*kG; antisense) [Compound 1198770]	40
1198631 (kA*kA*dA*dT*dT*dG*dT*d[5mC]*dT*d[5mC]*dA*dT*kG*e[5mC]*k[5mC]*eT; antisense) [Compound 1198631]	53

Same assay, conditions: Table 42 (separate experiment); SNU-449 cells, 10,000 cells per well, free uptake, 2,000 nM modified oligonucleotide, approximately 48 hours; RTS36584; normalized to RIBOGREEN; Yap1 mRNA relative to untreated control cells

Substance	YAP1 (% UTC)
1198679 (antisense TTATATGGTTTTGTGT; cEt/MOE gapmer, phosphorothioate, chemistry not fully specified) [Compound 1198679]	54
1198229 (kT*kT*dA*dA*dG*d[5mC]*dA*d[5mC]*dT*dT*dT*eT*eA*e[5mC]*kA*kT) [Compound 1198229]	80

Same assay, conditions: Table 43 experiment; SNU-449 cells, 10,000 cells per well, free uptake, 2,000 nM, approximately 48 hours; RTS36584; Yap1 mRNA normalized to RIBOGREEN, relative to untreated control cells

Substance	YAP1 (% UTC)
1198458 (kA*kA*dT*dT*dG*dT*d[5mC]*dT*d[5mC]*dA*dT*eG*k[5mC]*e[5mC]*kT*eT) [Compound 1198458]	30
1198243 (kG*kA*dT*dT*dT*dA*dG*dG*dA*dT*dG*e[5mC]*eA*eT*kG*kG; antisense) [Compound 1198243]	8
1198273 (k[5mC]*kT*dT*dT*dA*dA*dA*dG*dT*dG*dT*eA*eT*eG*kT*k[5mC]; antisense) [Compound 1198273]	52
1198268 (kA*kA*dG*dT*dG*dT*dA*dT*dG*dT*d[5mC]*eA*eG*eA*kA*kG; antisense) [Compound 1198268]	11
1095594 (antisense k[5mC]*kT*dG*dA*dG*dG*dT*dA*dT*dA*dA*e[5mC]*eT*eG*kG*kG) [Compound 1095594]	27

Same assay, conditions: Table 44 experiment; SNU-449 cells, 10,000 cells per well, free uptake, 2,000 nM, approximately 48 hours; RTS36584; Yap1 mRNA normalized to RIBOGREEN, relative to untreated control cells

Substance	YAP1 (% UTC)
1198509 (kT*k[5mC]*dT*dT*dA*dT*dA*dT*dG*dG*dT*eT*kT*eT*kG*eT; antisense) [Compound 1198509]	20
1198506 (kA*kT*dA*dT*dG*dG*dT*dT*dT*dT*dG*eT*kG*eT*kG*eT; antisense) [Compound 1198506]	47
1198517 (kA*kA*dT*dA*dT*dT*dG*d[5mC]*dA*dA*dT*e[5mC]*kT*eG*kT*e[5mC]; antisense) [Compound 1198517]	36
1198531 (k[5mC]*kT*dT*dT*dA*dA*dA*dG*dT*dG*dT*eA*kT*eG*kT*e[5mC]; antisense) [Compound 1198531]	21
1198489 (antisense kT*kT*dG*dG*dA*dA*dG*dA*dT*d[5mC]*dT*eG*kA*eA*kA*e[5mC]) [Compound 1198489]	50

Same assay, conditions: Table 45; Yap1 mRNA as percent of untreated control, SNU-449 cells, single dose

Substance	YAP1 (% UTC)
1198931 (kA*kG*dG*dA*dT*dG*d[5mC]*dA*dT*dG*dG*kT*dT*kT*dT*kT; antisense) [Compound 1198931]	47
1198951 (kA*kA*dT*dA*dT*dT*dG*d[5mC]*dA*dA*dT*k[5mC]*dT*kG*dT*k[5mC]; antisense) [Compound 1198951]	81

Same assay, conditions: Table 46; Yap1 mRNA as percent of untreated control, SNU-449 cells, single dose

Substance	YAP1 (% UT)
1198826 (kA*kA*d[5mC]*dA*d[5mC]*dT*dG*dA*dG*dG*dT*kA*eT*kA*eA*k[5mC]; antisense) [Compound 1198826]	64
1198848 (kA*kT*dT*dT*dA*dG*dG*dA*dT*dG*d[5mC]*kA*eT*kG*eG*kT; antisense) [Compound 1198848]	47
1198816 (antisense kT*kT*dA*dG*dA*dG*dT*dA*dT*dG*dT*kG*eG*k[5mC]*eA*kA) [Compound 1198816]	27

Same assay, conditions: Table 49; Yap1 mRNA level relative to untreated control; modified oligonucleotides targeting SEQ ID NO.: 1 and 2

Substance	YAP1 (% UT)
1198351 (kT*kT*kT*dA*dT*dG*dT*dA*dA*dT*dA*dT*kT*eG*k[5mC]*eA; antisense) [Compound 1198351]	40
1198559 (antisense kT*k[5mC]*kT*dA*dT*dA*dT*dT*dA*dG*dA*dG*kT*kA*kT*eG) [Compound 1198559]	55
1198558 (antisense kT*kA*kT*dA*dT*dT*dA*dG*dA*dG*dT*dA*kT*kG*kT*eG) [Compound 1198558]	46

Same assay, conditions: Table 50; Yap1 mRNA remaining as percent of untreated control (UT), SNU-449 cells, single dose

Substance	YAP1 (% UT)
1197231 (antisense kA*kT*kG*dG*mA*dA*dA*dT*dT*dG*dT*d[5mC]*dT*k[5mC]*kA*kT) [Compound 1197231]	50

Same assay, conditions: Table 51; Yap1 mRNA remaining as percent of untreated control (UT), SNU-449 cells, single dose

Substance	YAP1 (% UT)
1197253 (antisense kA*kG*kT*dG*mC*dT*dT*dT*dG*dG*dA*dA*dG*kA*kT*k[5mC]) [Compound 1197253]	58

Same assay, conditions: Table 52; Yap1 mRNA, modified oligonucleotides targeting SEQ ID NO: 1 and 2

Substance	YAP1 (% UT)
1200788 (kG*kA*kA*dA*dT*mU*dG*dT*d[5mC]*dT*d[5mC]*dA*dT*kG*k[5mC]*k[5mC]; antisense) [Compound 1200788]	19
1200835 (k[5mC]*kA*kG*dA*dT*mU*dT*dA*dG*dG*dA*dT*dG*k[5mC]*kA*kT; antisense) [Compound 1200835]	82
1200824 (kG*k[5mC]*kT*dT*dT*mG*dG*dA*dA*dG*dA*dT*d[5mC]*kT*kG*kA; antisense) [Compound 1200824]	43
1200863 (k[5mC]*kT*kT*dT*dA*mA*dA*dG*dT*dG*dT*dA*dT*kG*kT*k[5mC]; antisense) [Compound 1200863]	41

Same assay, conditions: Yap1 mRNA, percent of untreated control; modified oligonucleotides targeting SEQ ID NO: 1 and 2; Table 47

Substance	YAP1 (% UT)
1197176 (antisense kT*kG*kT*d[5mC]*dT*d[5mC]*dA*dT*dG*d[5mC]*d[5mC]*dT*dT*kA*kT*kA) [Compound 1197176]	17
1198874 (kA*kA*dG*dT*dG*dT*dA*dT*dG*dT*d[5mC]*kA*eG*kA*eA*kG) [Compound 1198874]	2
1197221 (antisense kA*kG*kT*dA*dA*dG*dG*dT*dT*dT*d[5mC]*d[5mC]*d[5mC]*kA*kG*kA) [Compound 1197221]	42

Source: patent US11214803B2, “Modulators of YAP1 expression” (Ionis Pharmaceuticals, Inc., priority 2019, dated 2022)
